≈ marks a conversion by molar mass, not a printed value.
What was measured:
[1] = Aqueous solubility of the compound at ph 6.5; assay type: physicochemical
Platelet = experiment: Inhibition of platelet aggregation (unknown origin); assay type: functional, cell-based
[2] = biological target: T1, Tyrosine-protein kinase receptor TYRO3 (Homo sapiens, UniProt Q06418); experiment: Inhibition of Sky (unknown origin) by ELISA kinase assay in presence of 60 uM ATP
T1 sequence (Q06418 whole entry): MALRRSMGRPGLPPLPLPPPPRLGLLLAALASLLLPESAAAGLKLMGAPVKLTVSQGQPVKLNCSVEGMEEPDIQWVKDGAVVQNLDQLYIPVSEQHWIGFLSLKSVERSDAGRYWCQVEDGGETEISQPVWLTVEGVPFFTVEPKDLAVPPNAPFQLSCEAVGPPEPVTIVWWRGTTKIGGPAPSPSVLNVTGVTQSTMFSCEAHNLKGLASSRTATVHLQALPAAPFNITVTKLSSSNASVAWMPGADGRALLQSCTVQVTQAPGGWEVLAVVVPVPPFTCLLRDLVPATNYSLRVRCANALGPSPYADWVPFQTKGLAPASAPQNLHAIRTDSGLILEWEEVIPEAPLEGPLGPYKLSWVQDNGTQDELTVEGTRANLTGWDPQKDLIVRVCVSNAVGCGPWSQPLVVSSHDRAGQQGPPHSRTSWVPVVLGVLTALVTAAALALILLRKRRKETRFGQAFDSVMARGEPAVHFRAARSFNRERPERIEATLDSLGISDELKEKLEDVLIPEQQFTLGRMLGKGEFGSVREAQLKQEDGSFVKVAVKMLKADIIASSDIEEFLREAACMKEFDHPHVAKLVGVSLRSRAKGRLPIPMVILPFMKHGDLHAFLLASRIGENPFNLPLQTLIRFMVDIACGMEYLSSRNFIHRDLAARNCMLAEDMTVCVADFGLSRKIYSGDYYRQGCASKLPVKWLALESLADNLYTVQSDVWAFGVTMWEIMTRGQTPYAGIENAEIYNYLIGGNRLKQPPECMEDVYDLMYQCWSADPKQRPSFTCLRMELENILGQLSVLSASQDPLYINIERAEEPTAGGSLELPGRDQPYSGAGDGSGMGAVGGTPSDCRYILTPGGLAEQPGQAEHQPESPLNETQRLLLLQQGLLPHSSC

hERG (KCNH2) = hERG (KCNH2) (Homo sapiens, UniProt Q12809); experiment: Displacement of [3H]dofetilide from human ERG at 10 uM; conditions: probe [3H]dofetilide
[3] = Half life in human liver microsomes; assay type: ADME, Microsome
[4] = Permeability of the compound by PAMPA; assay type: ADME; conditions: read-out: permeability
[5] = Half life in rat liver microsomes; assay type: ADME, Microsome
CYP2D6 = CYP2D6 (Homo sapiens, UniProt P10635); experiment: Inhibition of CYP2D6 (unknown origin) at 3 uM; assay type: ADME
[6] = biological target: Mitogen-activated protein kinase kinase kinase kinase 4 (Homo sapiens, UniProt O95819); experiment: Inhibition of MAP4K4 (unknown origin) in presence of ATP
[7] = biological target: Dual specificity protein kinase CLK1 (Homo sapiens, UniProt P49759); experiment: Inhibition of CLK1 (unknown origin) in presence of ATP
[8] = biological target: Casein kinase I isoform delta (Homo sapiens, UniProt P48730); experiment: Inhibition of CK1-delta (unknown origin) in presence of ATP
[9] = Oral bioavailability in Sprague-Dawley rat at 5 mg/kg; assay type: ADME, organism-based; conditions: in vivo
[10] = Volume of distribution at steady state in Sprague-Dawley rat at 1 mg/kg, iv and 5 mg/kg, po; assay type: ADME, organism-based; conditions: in vivo, read-out: Vdss
[11] = biological target: Myosin light chain kinase 2, skeletal/cardiac muscle (Homo sapiens, UniProt Q9H1R3); experiment: Inhibition of MYLK2 (unknown origin) in presence of ATP
[12] = biological target: Tyrosine-protein kinase Lck (Homo sapiens, UniProt P06239); experiment: Inhibition of LCK (unknown origin) in presence of ATP
[13] = biological target: Mitogen-activated protein kinase kinase kinase 9 (Homo sapiens, UniProt P80192); experiment: Inhibition of MAP3K9 (unknown origin) in presence of ATP
[14] = Half life in Sprague-Dawley rat at 1 mg/kg, iv and 5 mg/kg, po; assay type: ADME, organism-based; conditions: in vivo
[15] = Clearance in Sprague-Dawley rat at 1 mg/kg, iv and 5 mg/kg, po; assay type: ADME, organism-based; conditions: in vivo
[16] = Cmax in Sprague-Dawley rat at 1 mg/kg, iv and 5 mg/kg, po; assay type: ADME, organism-based; conditions: in vivo
[17] = AUC in Sprague-Dawley rat at 1 mg/kg, iv and 5 mg/kg, po; assay type: ADME, organism-based; conditions: plasma
[18] = biological target: Tyrosine-protein kinase ABL1 (Homo sapiens, UniProt P00519); experiment: Inhibition of ABL (unknown origin) in presence of ATP
[19] = biological target: Calcium/calmodulin-dependent protein kinase type 1 (Homo sapiens, UniProt Q14012); experiment: Inhibition of CAMK1 (unknown origin) in presence of ATP

Sequence of hERG (KCNH2) (Q12809 whole entry): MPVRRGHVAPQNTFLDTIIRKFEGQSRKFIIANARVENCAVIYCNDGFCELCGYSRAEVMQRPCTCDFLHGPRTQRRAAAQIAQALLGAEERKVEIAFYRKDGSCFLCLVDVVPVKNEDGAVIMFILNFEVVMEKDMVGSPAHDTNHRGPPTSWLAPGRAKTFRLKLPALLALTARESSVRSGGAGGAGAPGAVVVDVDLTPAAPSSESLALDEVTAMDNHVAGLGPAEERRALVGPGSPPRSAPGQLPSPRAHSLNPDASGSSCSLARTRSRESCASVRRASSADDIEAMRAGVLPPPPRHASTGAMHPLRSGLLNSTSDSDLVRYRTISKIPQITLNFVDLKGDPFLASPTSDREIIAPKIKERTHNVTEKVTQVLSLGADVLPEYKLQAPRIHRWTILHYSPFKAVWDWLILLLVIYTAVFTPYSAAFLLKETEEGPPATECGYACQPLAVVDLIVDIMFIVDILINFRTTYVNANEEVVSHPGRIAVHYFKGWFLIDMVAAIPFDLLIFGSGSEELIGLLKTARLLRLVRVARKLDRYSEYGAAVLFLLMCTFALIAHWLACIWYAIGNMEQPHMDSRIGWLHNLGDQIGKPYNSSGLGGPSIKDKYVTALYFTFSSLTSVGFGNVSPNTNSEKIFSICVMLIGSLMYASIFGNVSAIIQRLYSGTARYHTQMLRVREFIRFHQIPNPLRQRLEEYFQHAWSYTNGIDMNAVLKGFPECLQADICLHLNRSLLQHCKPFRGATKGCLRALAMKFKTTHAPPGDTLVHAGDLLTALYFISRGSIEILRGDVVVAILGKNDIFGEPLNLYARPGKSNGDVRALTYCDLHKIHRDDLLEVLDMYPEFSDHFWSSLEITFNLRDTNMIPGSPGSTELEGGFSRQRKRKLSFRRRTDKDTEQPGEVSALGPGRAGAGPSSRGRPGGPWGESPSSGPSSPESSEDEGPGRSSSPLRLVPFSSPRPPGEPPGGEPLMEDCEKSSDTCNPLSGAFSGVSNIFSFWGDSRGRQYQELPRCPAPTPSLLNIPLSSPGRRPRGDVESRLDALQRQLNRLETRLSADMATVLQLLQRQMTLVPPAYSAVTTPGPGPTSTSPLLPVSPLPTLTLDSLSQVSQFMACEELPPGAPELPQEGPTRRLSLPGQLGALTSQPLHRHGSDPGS
Sequence of CYP2D6 (P10635 whole entry): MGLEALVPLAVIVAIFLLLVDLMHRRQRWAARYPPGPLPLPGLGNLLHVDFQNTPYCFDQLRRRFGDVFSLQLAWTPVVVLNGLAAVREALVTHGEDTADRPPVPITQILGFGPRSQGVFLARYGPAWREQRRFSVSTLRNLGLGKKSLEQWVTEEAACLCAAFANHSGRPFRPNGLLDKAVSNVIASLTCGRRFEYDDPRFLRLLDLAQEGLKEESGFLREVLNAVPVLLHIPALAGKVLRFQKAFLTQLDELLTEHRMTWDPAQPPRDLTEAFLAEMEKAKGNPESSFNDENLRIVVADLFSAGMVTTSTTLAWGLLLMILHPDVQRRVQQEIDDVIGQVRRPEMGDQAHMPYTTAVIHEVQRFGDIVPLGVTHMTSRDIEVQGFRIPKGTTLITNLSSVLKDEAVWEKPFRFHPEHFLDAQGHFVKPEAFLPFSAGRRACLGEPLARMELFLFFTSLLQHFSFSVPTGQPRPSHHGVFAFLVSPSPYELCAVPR
Sequence of Dual specificity protein kinase CLK1 (P49759 whole entry, canonical isoform): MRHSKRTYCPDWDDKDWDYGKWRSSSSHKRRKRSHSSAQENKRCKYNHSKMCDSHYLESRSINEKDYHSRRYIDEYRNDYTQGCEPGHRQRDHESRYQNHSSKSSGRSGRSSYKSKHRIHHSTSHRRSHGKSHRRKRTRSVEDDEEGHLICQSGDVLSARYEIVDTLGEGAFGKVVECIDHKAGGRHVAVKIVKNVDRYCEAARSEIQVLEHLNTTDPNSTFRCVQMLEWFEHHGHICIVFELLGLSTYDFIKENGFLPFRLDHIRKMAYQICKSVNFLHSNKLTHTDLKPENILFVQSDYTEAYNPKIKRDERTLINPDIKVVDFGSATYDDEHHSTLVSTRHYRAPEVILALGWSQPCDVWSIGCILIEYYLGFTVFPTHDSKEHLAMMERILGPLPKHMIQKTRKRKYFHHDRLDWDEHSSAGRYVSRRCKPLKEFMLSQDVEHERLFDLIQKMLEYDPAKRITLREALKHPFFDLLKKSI
Sequence of Tyrosine-protein kinase ABL1 (P00519 whole entry): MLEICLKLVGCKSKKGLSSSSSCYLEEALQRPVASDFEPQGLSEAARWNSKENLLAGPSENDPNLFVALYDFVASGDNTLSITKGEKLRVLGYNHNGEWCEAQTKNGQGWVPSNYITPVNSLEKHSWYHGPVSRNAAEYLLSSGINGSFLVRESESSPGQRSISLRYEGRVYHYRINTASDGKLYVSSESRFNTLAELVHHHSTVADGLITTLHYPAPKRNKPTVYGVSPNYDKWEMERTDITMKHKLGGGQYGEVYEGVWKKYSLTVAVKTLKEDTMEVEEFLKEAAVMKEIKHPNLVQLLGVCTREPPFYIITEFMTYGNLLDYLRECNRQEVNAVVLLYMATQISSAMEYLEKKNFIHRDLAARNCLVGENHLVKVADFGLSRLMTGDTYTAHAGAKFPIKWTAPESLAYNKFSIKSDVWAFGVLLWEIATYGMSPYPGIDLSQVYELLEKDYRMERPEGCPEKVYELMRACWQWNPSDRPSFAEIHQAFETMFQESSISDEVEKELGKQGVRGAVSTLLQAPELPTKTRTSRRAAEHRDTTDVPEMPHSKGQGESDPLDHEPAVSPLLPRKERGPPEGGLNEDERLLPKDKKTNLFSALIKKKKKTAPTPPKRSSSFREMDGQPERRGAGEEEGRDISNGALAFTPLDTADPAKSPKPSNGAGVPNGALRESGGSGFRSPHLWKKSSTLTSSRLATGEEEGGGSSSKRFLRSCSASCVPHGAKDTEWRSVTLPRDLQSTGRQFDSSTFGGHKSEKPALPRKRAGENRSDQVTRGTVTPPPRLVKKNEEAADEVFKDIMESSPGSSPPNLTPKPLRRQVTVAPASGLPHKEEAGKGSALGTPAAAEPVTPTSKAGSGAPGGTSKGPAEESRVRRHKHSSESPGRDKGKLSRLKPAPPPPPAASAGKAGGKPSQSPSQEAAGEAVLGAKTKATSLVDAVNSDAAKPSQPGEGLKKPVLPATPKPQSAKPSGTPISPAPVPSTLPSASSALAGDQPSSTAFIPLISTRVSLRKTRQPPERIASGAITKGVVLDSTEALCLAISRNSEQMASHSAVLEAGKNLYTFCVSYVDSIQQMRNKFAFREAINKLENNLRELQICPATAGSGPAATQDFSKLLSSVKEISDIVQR
Sequence of Mitogen-activated protein kinase kinase kinase 9 (P80192 whole entry): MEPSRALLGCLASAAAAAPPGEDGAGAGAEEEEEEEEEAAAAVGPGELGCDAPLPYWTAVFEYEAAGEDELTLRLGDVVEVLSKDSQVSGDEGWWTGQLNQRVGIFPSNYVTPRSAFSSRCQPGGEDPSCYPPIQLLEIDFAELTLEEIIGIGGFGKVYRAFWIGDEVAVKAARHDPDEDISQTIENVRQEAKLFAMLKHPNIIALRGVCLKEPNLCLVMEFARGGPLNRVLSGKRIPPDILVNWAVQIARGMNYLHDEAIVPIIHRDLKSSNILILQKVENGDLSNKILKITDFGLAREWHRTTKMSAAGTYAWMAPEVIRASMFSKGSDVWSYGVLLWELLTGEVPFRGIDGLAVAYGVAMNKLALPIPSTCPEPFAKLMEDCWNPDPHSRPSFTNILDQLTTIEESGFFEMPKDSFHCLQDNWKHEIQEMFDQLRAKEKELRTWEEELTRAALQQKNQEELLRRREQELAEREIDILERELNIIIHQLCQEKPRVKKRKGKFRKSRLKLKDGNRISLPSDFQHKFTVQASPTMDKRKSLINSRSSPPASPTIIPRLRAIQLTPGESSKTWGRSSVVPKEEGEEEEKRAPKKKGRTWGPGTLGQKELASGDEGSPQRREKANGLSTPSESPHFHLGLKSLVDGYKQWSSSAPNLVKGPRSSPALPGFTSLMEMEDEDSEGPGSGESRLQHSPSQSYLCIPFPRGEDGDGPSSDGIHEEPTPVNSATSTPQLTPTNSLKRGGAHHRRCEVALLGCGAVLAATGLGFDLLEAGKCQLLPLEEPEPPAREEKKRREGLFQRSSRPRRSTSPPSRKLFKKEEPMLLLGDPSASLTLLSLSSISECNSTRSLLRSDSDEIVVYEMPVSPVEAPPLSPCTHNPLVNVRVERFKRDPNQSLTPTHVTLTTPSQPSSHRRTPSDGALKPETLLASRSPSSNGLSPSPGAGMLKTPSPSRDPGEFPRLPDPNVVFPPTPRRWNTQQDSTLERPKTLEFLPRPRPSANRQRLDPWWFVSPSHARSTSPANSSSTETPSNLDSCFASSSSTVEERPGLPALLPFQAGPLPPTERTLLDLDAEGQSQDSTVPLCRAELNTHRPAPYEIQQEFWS
Sequence of Tyrosine-protein kinase Lck (P06239 whole entry): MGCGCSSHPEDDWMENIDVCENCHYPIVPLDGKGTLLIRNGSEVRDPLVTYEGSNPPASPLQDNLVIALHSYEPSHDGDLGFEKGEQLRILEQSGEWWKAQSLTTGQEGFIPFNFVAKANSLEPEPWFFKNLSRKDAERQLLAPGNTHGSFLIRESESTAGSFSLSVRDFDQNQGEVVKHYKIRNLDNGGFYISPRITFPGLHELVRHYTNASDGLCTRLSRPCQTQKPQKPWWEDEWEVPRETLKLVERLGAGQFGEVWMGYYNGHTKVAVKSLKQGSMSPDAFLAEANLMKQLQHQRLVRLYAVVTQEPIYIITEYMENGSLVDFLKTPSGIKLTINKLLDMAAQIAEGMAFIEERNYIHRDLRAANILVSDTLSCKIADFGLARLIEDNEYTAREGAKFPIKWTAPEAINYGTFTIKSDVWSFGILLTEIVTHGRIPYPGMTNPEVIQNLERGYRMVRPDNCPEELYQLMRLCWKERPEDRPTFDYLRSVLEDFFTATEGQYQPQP

## COc1ccccc1CNc1ncc(C(=O)NCCCO)c(NC2CCCC2)n1
[1]
  solubility: 7.8 µM (≈ 3.12 µg/mL)
Platelet
  IC50: 46 µM
[2]
  IC50: 0.16 µM
hERG (KCNH2)
  inhibition at 10 µM: 35%
[3]
  half-life: 11 min
[4]
  Papp: 0.9 ×10⁻⁶ cm/s

## O=C(NCCCN1CCOC1=O)c1cnc(NCc2cc(Cl)ccc2Cl)nc1NC1CCCC1
[1]
  solubility: 1.3 µM (≈ 0.66 µg/mL)
Platelet
  IC50: 29 µM
[5]
  half-life: < 5 min
hERG (KCNH2)
  inhibition at 10 µM: 33%

## O[C@@H]1COC[C@H]1Nc1nc(Nc2cc(Cl)cc(Cl)c2)ncc1-c1ccc(F)cc1
[1]
  solubility: 200 µM (≈ 87.1 µg/mL)
[2]
  IC50: 0.15 µM
[5]
  half-life: 60 min
hERG (KCNH2)
  inhibition at 10 µM: 2.7%
[3]
  half-life: 48 min
CYP2D6
  inhibition at 3 µM: 24%
[4]
  Papp: < 0.01 ×10⁻⁶ cm/s

## CN1CCC(NC(=O)c2cnc(Nc3cc(Cl)cc(Cl)c3)nc2NC2CCOCC2)CC1
[1]
  solubility: 40 µM (≈ 19.2 µg/mL)
[2]
  IC50: 0.009 µM
[3]
  half-life: 35 min
[4]
  Papp: < 0.1 ×10⁻⁶ cm/s

## CN1CCC(NC(=O)c2cnc(Nc3cc(Cl)cc(Cl)c3)nc2N[C@@H]2COC[C@H]2O)CC1
[6]
  IC50: 2.48 µM
[7]
  IC50: 11.2 µM
[8]
  IC50: 4.5 µM
[9]
  bioavailability: 0%
[10]
  Vd: 2.7 L/kg
[1]
  solubility: 40 µM (≈ 19.3 µg/mL)
Platelet
  IC50: 9.6 µM
[2]
  IC50: 0.01 µM
[5]
  half-life: 60 min
[11]
  IC50: 24.9 µM
[12]
  IC50: 3.68 µM
hERG (KCNH2)
  inhibition at 10 µM: 0.98%
[3]
  half-life: 74 min
[13]
  IC50: 13.4 µM
[14]
  half-life: 780 min
[15]
  clearance: 55 mL/min/kg
[4]
  Papp: 1.4 ×10⁻⁶ cm/s

## O=C(NCCCN1CCCC1=O)c1cnc(NCc2cc(Cl)ccc2Cl)nc1NC1CCCC1
[1]
  solubility: 3.9 µM (≈ 1.97 µg/mL)
Platelet
  IC50: 28 µM
[5]
  half-life: 4 min
hERG (KCNH2)
  inhibition at 10 µM: 23%
[4]
  Papp: 0.1 ×10⁻⁶ cm/s

## CN1CCC(NC(=O)c2cnc(NCc3cc(Cl)ccc3Cl)nc2NC2CCNCC2)CC1
[9]
  bioavailability: 0%
[10]
  Vd: 0.4 L/kg
[16]
  Cmax: 25 ng/mL
[1]
  solubility: 200 µM (≈ 98.5 µg/mL)
Platelet
  IC50: 8.5 µM
[2]
  IC50: 0.19 µM
[5]
  half-life: 60 min
hERG (KCNH2)
  inhibition at 10 µM: > 50%
[3]
  half-life: 38 min
[14]
  half-life: 12 min
[15]
  clearance: 40 mL/min/kg
[4]
  Papp: < 0.1 ×10⁻⁶ cm/s

## O[C@@H]1COC[C@H]1Nc1nc(Nc2cc(Cl)cc(Cl)c2)ncc1-c1cccnc1
[1]
  solubility: 200 µM (≈ 83.7 µg/mL)
[2]
  IC50: 0.044 µM
[5]
  half-life: 31 min
hERG (KCNH2)
  inhibition at 10 µM: 1.5%
[3]
  half-life: 120 min
CYP2D6
  inhibition at 3 µM: 88%
[4]
  Papp: 1 ×10⁻⁶ cm/s

## COc1ccccc1CNc1ncc(C(=O)NCCCN2CCCC2=O)c(NC2CCCC2)n1
[1]
  solubility: 81.6 µM (≈ 38.1 µg/mL)
Platelet
  IC50: 46 µM
[5]
  half-life: 16 min
hERG (KCNH2)
  inhibition at 10 µM: 7%
[4]
  Papp: 1.5 ×10⁻⁶ cm/s

## CN1CCC(NC(=O)c2cnc(NCc3cc(Cl)ccc3Cl)nc2NC2CCC(N(C)C)CC2)CC1 (stereo unspecified)
[1]
  solubility: 89 µM (≈ 47.6 µg/mL)
[2]
  IC50: 0.041 µM
[5]
  half-life: 57 min
hERG (KCNH2)
  inhibition at 10 µM: 1.6%
[3]
  half-life: 23 min
[4]
  Papp: 2 ×10⁻⁶ cm/s

## COc1ccccc1CNc1ncc(C(=O)NC2CCN(C)CC2)c(NC2CCCC2)n1
[17]
  AUC: 302 ng·h/mL
[18]
  IC50: 21.1 µM
[9]
  bioavailability: 41%
[10]
  Vd: 18 L/kg
[16]
  Cmax: 74 ng/mL
[1]
  solubility: 80 µM (≈ 35.1 µg/mL)
Platelet
  IC50: 8.8 µM
[2]
  IC50: 0.52 µM
[5]
  half-life: 56 min
[12]
  IC50: 15 µM
hERG (KCNH2)
  inhibition at 10 µM: 27%
[3]
  half-life: 34 min
[14]
  half-life: 210 min
[15]
  clearance: 73 mL/min/kg
[4]
  Papp: 1.2 ×10⁻⁶ cm/s

## CC[C@@H](CO)Nc1nc(Nc2cc(Cl)cc(Cl)c2)ncc1C(=O)NC1CCN(C)CC1
[1]
  solubility: 3.5 µM (≈ 1.64 µg/mL)
[2]
  IC50: 0.003 µM
hERG (KCNH2)
  inhibition at 10 µM: 3.4%
[3]
  half-life: 37 min
[4]
  Papp: 2 ×10⁻⁶ cm/s

## COc1ccccc1CNc1ncc(C(=O)NCCNC(C)=O)c(NC2CCCC2)n1
[1]
  solubility: 7.8 µM (≈ 3.33 µg/mL)
[2]
  IC50: 0.38 µM
hERG (KCNH2)
  inhibition at 10 µM: 35%
[3]
  half-life: 5 min
[4]
  Papp: 1.9 ×10⁻⁶ cm/s

## CN1CCC(NC(=O)c2cnc(Nc3cc(Cl)cc(Cl)c3)nc2N[C@H]2CCCCNC2=O)CC1
[1]
  solubility: 2.3 µM (≈ 1.16 µg/mL)
[2]
  IC50: 0.006 µM
hERG (KCNH2)
  inhibition at 10 µM: 4%
[3]
  half-life: 41 min
[4]
  Papp: 0.2 ×10⁻⁶ cm/s

## CN1CCC(NC(=O)c2cnc(Nc3cc(Cl)cc(Cl)c3)nc2NC2CCC(N(C)C)CC2)CC1 (stereo unspecified)
[6]
  IC50: 0.12 µM
[19]
  IC50: 19.7 µM
[7]
  IC50: 3.45 µM
[18]
  IC50: 7.61 µM
[1]
  solubility: 200 µM (≈ 104 µg/mL)
Platelet
  IC50: 1.4 µM
[2]
  IC50: 0.002 µM
[5]
  half-life: 60 min
[11]
  IC50: 8.27 µM
hERG (KCNH2)
  inhibition at 10 µM: 6.7%
[3]
  half-life: 120 min
[13]
  IC50: 12.2 µM
[4]
  Papp: 0.3 ×10⁻⁶ cm/s

## COc1ccccc1CNc1ncc(C(=O)NCCc2nnn[nH]2)c(NC2CCCC2)n1
[1]
  solubility: 12 µM (≈ 5.25 µg/mL)
[2]
  IC50: 1.3 µM
[5]
  half-life: 22 min
hERG (KCNH2)
  inhibition at 10 µM: 79%
[3]
  half-life: 60 min
[4]
  Papp: 21 ×10⁻⁶ cm/s

## Cc1cc(-c2cnc(Nc3cc(Cl)cc(Cl)c3)nc2NC2CCNCC2)on1
[1]
  solubility: 5.2 µM (≈ 2.18 µg/mL)
[2]
  IC50: 0.092 µM
[5]
  half-life: 3 min
hERG (KCNH2)
  inhibition at 10 µM: 1.3%
[3]
  half-life: 21 min
CYP2D6
  inhibition at 3 µM: 81%
[4]
  Papp: 0.2 ×10⁻⁶ cm/s

## COc1ccccc1CNc1ncc(C(=O)NCCCCN(C)C)c(NC2CCCC2)n1
[1]
  solubility: 200 µM (≈ 88.1 µg/mL)
Platelet
  IC50: 24 µM
[2]
  IC50: 0.5 µM
hERG (KCNH2)
  inhibition at 10 µM: 28%
[3]
  half-life: 40 min

## O[C@@H]1COC[C@H]1Nc1nc(Nc2cc(Cl)cc(Cl)c2)ncc1Br
[1]
  solubility: 5.2 µM (≈ 2.18 µg/mL)
[2]
  IC50: 0.015 µM
[5]
  half-life: 31 min
hERG (KCNH2)
  inhibition at 10 µM: > 100%
[3]
  half-life: 30 min
CYP2D6
  inhibition at 3 µM: 1%
[4]
  Papp: 0.3 ×10⁻⁶ cm/s

— ChEMBL document CHEMBL2311250 (Bioorg Med Chem Lett, 2013)
